Where “and” joins values, the source holds several entries; their conditions need not be identical. Equal entries are not always repeated.
System: 616215-338-R-J1-PDC complex spheroids, viability % test/control
Experiment: Anticancer human tumor 616215-338-R-J1-PDC patient-derived colon adenocarcinoma cell line growth inhibition [CLK]
Details: for viability, T/C: stronger effect = lower value
Procedure, shortened: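 Patient-derived tumor cells grown as complex spheroids with HUVEC endothelial cells and mesenchymal stem cells, treated with drug combinations. Concentrations descend in half-log steps from near clinical Cmax, or from 10 microM if Cmax unknown.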

[1] = curve of first compound, second compound 0.0316 µM
[2] = curve of first compound, second compound 0.1 µM
[3] = curve of first compound, second compound 0.316 µM
[4] = curve of first compound, second compound 1 µM
[5] = curve of first compound, second compound 3.16 µM
[6] = curve of first compound, second compound 10 µM
[7] = second compound 0.0316 µM, first compound 0.0316 µM
[8] = second compound 0.0316 µM, first compound 0.1 µM
[9] = second compound 0.1 µM, first compound 0.0316 µM
[10] = second compound 0.1 µM, first compound 0.1 µM
[11] = second compound 0.316 µM, first compound 0.0316 µM
[12] = second compound 0.316 µM, first compound 0.1 µM
[13] = second compound 1 µM, first compound 0.0316 µM
[14] = second compound 1 µM, first compound 0.1 µM
[15] = second compound 3.16 µM, first compound 0.0316 µM
[16] = second compound 3.16 µM, first compound 0.1 µM
[17] = second compound 10 µM, first compound 0.0316 µM
[18] = second compound 10 µM, first compound 0.1 µM
[19] = second compound 0.0316 µM, first compound 0.316 µM
[20] = second compound 0.0316 µM, first compound 1 µM
[21] = second compound 0.0316 µM, first compound 3.16 µM
[22] = second compound 0.0316 µM, first compound 10 µM
[23] = second compound 0.1 µM, first compound 0.316 µM
[24] = second compound 0.1 µM, first compound 1 µM
[25] = second compound 0.1 µM, first compound 3.16 µM
[26] = second compound 0.1 µM, first compound 10 µM
[27] = second compound 0.316 µM, first compound 0.316 µM
[28] = second compound 0.316 µM, first compound 1 µM
[29] = second compound 0.316 µM, first compound 3.16 µM
[30] = second compound 0.316 µM, first compound 10 µM
[31] = second compound 1 µM, first compound 0.316 µM
[32] = second compound 1 µM, first compound 1 µM
[33] = second compound 1 µM, first compound 3.16 µM
[34] = second compound 1 µM, first compound 10 µM
[35] = second compound 3.16 µM, first compound 0.316 µM
[36] = second compound 3.16 µM, first compound 1 µM
[37] = second compound 3.16 µM, first compound 3.16 µM
[38] = second compound 3.16 µM, first compound 10 µM
[39] = second compound 10 µM, first compound 0.316 µM
[40] = second compound 10 µM, first compound 1 µM
[41] = second compound 10 µM, first compound 3.16 µM
[42] = second compound 10 µM, first compound 10 µM
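Note: spheroids exposed to agents for 7 days.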
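Throughout, for viability, T/C: 100% = DMSO vehicle wells.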

SMILES: Cn1ncnc1[C@H]1c2n[nH]c(=O)c3cc(F)cc(c23)N[C@@H]1c1ccc(F)cc1 + CNC(=O)c1ccc(Nc2nc(OC3CCCC3)c3c(-c4ccc5nc(C)oc5c4)c[nH]c3n2)c(OC)c1
- IC50 [1]: > 0.1 µM
- IC50 [2]: < 0.000316 µM
- IC50 [3]: < 0.000316 µM
- IC50 [4]: < 0.000316 µM
- IC50 [5]: < 0.000316 µM
- IC50 [6]: < 0.000316 µM
- viability, T/C (second compound 0.0316 µM, first compound 0.000316 µM): 97.2%
- viability, T/C (second compound 0.0316 µM, first compound 0.001 µM): 93.8%
- viability, T/C (second compound 0.0316 µM, first compound 0.00316 µM): 102%
- viability, T/C (second compound 0.0316 µM, first compound 0.01 µM): 102%
- viability, T/C [7]: 101%
- viability, T/C [8]: 108%
- viability, T/C (second compound 0.1 µM, first compound 0.000316 µM): 46.1%
- viability, T/C (second compound 0.1 µM, first compound 0.001 µM): 46.5%
- viability, T/C (second compound 0.1 µM, first compound 0.00316 µM): 47.9%
- viability, T/C (second compound 0.1 µM, first compound 0.01 µM): 54.5%
- viability, T/C [9]: 59.8%
- viability, T/C [10]: 49.6%
- viability, T/C (second compound 0.316 µM, first compound 0.000316 µM): 46.7%
- viability, T/C (second compound 0.316 µM, first compound 0.001 µM): 45.3%
- viability, T/C (second compound 0.316 µM, first compound 0.00316 µM): 40.5%
- viability, T/C (second compound 0.316 µM, first compound 0.01 µM): 45.1%
- viability, T/C [11]: 37.7%
- viability, T/C [12]: 51.3%
- viability, T/C (second compound 1 µM, first compound 0.000316 µM): 39.2%
- viability, T/C (second compound 1 µM, first compound 0.001 µM): 44.8%
- viability, T/C (second compound 1 µM, first compound 0.00316 µM): 41.9%
- viability, T/C (second compound 1 µM, first compound 0.01 µM): 48.1%
- viability, T/C [13]: 44.3%
- viability, T/C [14]: 56.3%
- viability, T/C (second compound 3.16 µM, first compound 0.000316 µM): 42.2%
- viability, T/C (second compound 3.16 µM, first compound 0.001 µM): 45.1%
- viability, T/C (second compound 3.16 µM, first compound 0.00316 µM): 45.5%
- viability, T/C (second compound 3.16 µM, first compound 0.01 µM): 42.9%
- viability, T/C [15]: 52%
- viability, T/C [16]: 50.9%
- viability, T/C (second compound 10 µM, first compound 0.000316 µM): 38.8%
- viability, T/C (second compound 10 µM, first compound 0.001 µM): 43.6%
- viability, T/C (second compound 10 µM, first compound 0.00316 µM): 50.2%
- viability, T/C (second compound 10 µM, first compound 0.01 µM): 50.1%
- viability, T/C [17]: 54.9%
- viability, T/C [18]: 47.2%

SMILES: O=c1[nH]cc(F)c(=O)[nH]1
- viability, T/C (compound 0.0316 µM): 94% and 97.5%
- viability, T/C (compound 0.1 µM): 95.6% and 111%
- viability, T/C (compound 0.316 µM): 65.3% and 61.7%
- viability, T/C (compound 1 µM): 44.4% and 46.8%
- viability, T/C (compound 3.16 µM): 35.2% and 39.2%
- viability, T/C (compound 10 µM): 39.2% and 43.4%
- IC50 (curve of compound): 0.672 µM and 0.654 µM

SMILES: O=C(c1cc(Cc2n[nH]c(=O)c3ccccc23)ccc1F)N1CCN(C(=O)C2CC2)CC1 + CNC(=O)c1ccc(Nc2nc(OC3CCCC3)c3c(-c4ccc5nc(C)oc5c4)c[nH]c3n2)c(OC)c1
- IC50 [1]: > 10 µM
- IC50 [2]: > 10 µM
- IC50 [3]: < 0.0316 µM
- IC50 [4]: < 0.0316 µM
- IC50 [5]: < 0.0316 µM
- IC50 [6]: < 0.0316 µM
- viability, T/C [7]: 107%
- viability, T/C [8]: 98.9%
- viability, T/C [19]: 92.3%
- viability, T/C [20]: 99.7%
- viability, T/C [21]: 96.1%
- viability, T/C [22]: 110%
- viability, T/C [9]: 59%
- viability, T/C [10]: 63.5%
- viability, T/C [23]: 56%
- viability, T/C [24]: 57.2%
- viability, T/C [25]: 51.2%
- viability, T/C [26]: 63.9%
- viability, T/C [11]: 42.1%
- viability, T/C [12]: 61.1%
- viability, T/C [27]: 49.5%
- viability, T/C [28]: 45.2%
- viability, T/C [29]: 50%
- viability, T/C [30]: 56.6%
- viability, T/C [13]: 45.1%
- viability, T/C [14]: 51.3%
- viability, T/C [31]: 42.4%
- viability, T/C [32]: 49.3%
- viability, T/C [33]: 52.6%
- viability, T/C [34]: 49.8%
- viability, T/C [15]: 45.5%
- viability, T/C [16]: 38.5%
- viability, T/C [35]: 42.4%
- viability, T/C [36]: 42.2%
- viability, T/C [37]: 55.4%
- viability, T/C [38]: 41.6%
- viability, T/C [17]: 39.1%
- viability, T/C [18]: 41.8%
- viability, T/C [39]: 42.8%
- viability, T/C [40]: 47.8%
- viability, T/C [41]: 40.8%
- viability, T/C [42]: 39.8%

SMILES: Nc1ccn(C2OC(CO)C(O)C2(F)F)c(=O)n1 (stereo not given)
- viability, T/C (compound 0.0316 µM): 13.9% and 20.9%
- viability, T/C (compound 0.1 µM): 11.6% and 15.4%
- viability, T/C (compound 0.316 µM): 9.93% and 15.4%
- viability, T/C (compound 1 µM): 13.5% and 17%
- viability, T/C (compound 3.16 µM): 9.75% and 16.1%
- viability, T/C (compound 10 µM): 11.3% and 14.7%
- IC50 (curve of compound): < 0.0316 µM

SMILES: CC1(C)CCC(CN2CCN(c3ccc(C(=O)NS(=O)(=O)c4ccc(NCC5CCOCC5)c([N+](=O)[O-])c4)c(Oc4cnc5[nH]ccc5c4)c3)CC2)=C(c2ccc(Cl)cc2)C1 + CN1CCN(c2cc(C(=O)Nc3cc4cc(-c5cnn(C)c5)ccc4cn3)ccn2)CC1
- IC50 [1]: 5.82 µM
- IC50 [2]: 4.31 µM
- IC50 [3]: < 0.0316 µM
- IC50 [4]: < 0.0316 µM
- IC50 [5]: < 0.0316 µM
- IC50 [6]: < 0.0316 µM
- viability, T/C [7]: 105%
- viability, T/C [8]: 106%
- viability, T/C [19]: 102%
- viability, T/C [20]: 103%
- viability, T/C [21]: 106%
- viability, T/C [22]: 1.63%
- viability, T/C [9]: 109%
- viability, T/C [10]: 118%
- viability, T/C [23]: 110%
- viability, T/C [24]: 129%
- viability, T/C [25]: 67.9%
- viability, T/C [26]: 1.54%
- viability, T/C [11]: 35.4%
- viability, T/C [12]: 31.4%
- viability, T/C [27]: 32%
- viability, T/C [28]: 26.9%
- viability, T/C [29]: 12.7%
- viability, T/C [30]: 1.79%
- viability, T/C [13]: 0.16%
- viability, T/C [14]: 0.22%
- viability, T/C [31]: 0.2%
- viability, T/C [32]: 0.16%
- viability, T/C [33]: 2.45%
- viability, T/C [34]: 0.3%
- viability, T/C [15]: 0.12%
- viability, T/C [16]: 0.14%
- viability, T/C [35]: 0.15%
- viability, T/C [36]: 0.12%
- viability, T/C [37]: 0.11%
- viability, T/C [38]: 0.62%
- viability, T/C [17]: 0.13%
- viability, T/C [18]: 0.14%
- viability, T/C [39]: 0.16%
- viability, T/C [40]: 0.15%
- viability, T/C [41]: 3.51%
- viability, T/C [42]: 0.2%

Source: PubChem BioAssay AID2060610 (Molecular Pharmacology Branch, DTP, NCI, 2025)
